Laboratory results from patent US11807644B2 (PMV Pharmaceuticals, Inc., priority 2020, dated 2023).

Biological target: T1, recombinant His-tag Y220C p53 DBD protein (Homo sapiens, UniProt P04637, Y220C)
T1 construct: recombinant His-tag Y220C p53 DBD protein (amino acids #˜94-312)
Assay: In vitro DNA binding activity assay (TR-FRET): binding of His-tag Y220C p53 DBD to biotin-labeled consensus DNA
Format: biochemical
Settings: SC150 = concentration to increase DNA binding by […], His-tag Y220C p53 DBD, biotin-labeled consensus DNA

Row | Y220C SC150 (μM) | Structure (SMILES)
1 | ** (** = 0.1 μM ≤ SC150 < 0.5 μM) | CN1CCC(Nc2cccc3c2cc(-c2nnc(CNC(=O)C4(C)CC4)s2)n3CC(F)(F)F)CC1 [Compound 71B, 1-methyl-N-[(5-{4-[(1-methylpiperidin-4-yl)amino]-1-(2,2,2-trifluoroethyl)-1H-indol-2-yl}-1,3,4-thiadiazol-2-yl)methyl]cyclopropane-1-carboxamide]
2 | * (* = 0 μM ≤ SC150 < 0.1 μM) | CN1CCC(Nc2cccc3c2cc(-c2nnc(CNC(=O)c4cn[nH]c4)s2)n3CC(F)(F)F)CC1 [Compound 72B, N-[(5-{4-[(1-methylpiperidin-4-yl)amino]-1-(2,2,2-trifluoroethyl)-1H-indol-2-yl}-1,3,4-thiadiazol-2-yl)methyl]-1H-pyrazole-4-carboxamide]
3 | ** (** = 0.1 μM ≤ SC150 < 0.5 μM) | CCC1(C(=O)NCc2nnc(-c3cc4c(NC5CCN(C)CC5)cccc4n3CC(F)(F)F)s2)CC1 [Compound 74B, 1-ethyl-N-[(5-{4-[(1-methylpiperidin-4-yl)amino]-1-(2,2,2-trifluoroethyl)-1H-indol-2-yl}-1,3,4-thiadiazol-2-yl)methyl]cyclopropane-1-carboxamide]
4 | * (* = 0 μM ≤ SC150 < 0.1 μM) | CN1CCC(Nc2cccc3c2cc(-c2nnc(CNC(=O)c4ccn(C)c4)s2)n3CC(F)(F)F)CC1 [Compound 77B, 1-methyl-N-[(5-{4-[(1-methylpiperidin-4-yl)amino]-1-(2,2,2-trifluoroethyl)-1H-indol-2-yl}-1,3,4-thiadiazol-2-yl)methyl]-1H-pyrrole-3-carboxamide]
5 | * (* = 0 μM ≤ SC150 < 0.1 μM) | CN1CCC(Nc2cccc3c2cc(-c2nnc(CNC(=O)c4cc[nH]c4)s2)n3CC(F)(F)F)CC1 [Compound 78B, N-[(5-{4-[(1-methylpiperidin-4-yl)amino]-1-(2,2,2-trifluoroethyl)-1H-indol-2-yl}-1,3,4-thiadiazol-2-yl)methyl]-1H-pyrrole-3-carboxamide]
6 | * (* = 0 μM ≤ SC150 < 0.1 μM) | CN1CCC(Nc2cccc3c2cc(-c2nnc(CNC(=O)C4CC4c4cccs4)s2)n3CC(F)(F)F)CC1 (stereo not drawn) [Compound 79B, N-[(5-{4-[(1-methylpiperidin-4-yl)amino]-1-(2,2,2-trifluoroethyl)-1H-indol-2-yl}-1,3,4-thiadiazol-2-yl)methyl]-2-(thiophen-2-yl)cyclopropane-1-carboxamide]
7 | **** (**** = 1 μM ≤ SC150 < 10 μM) | CN1CCC(Nc2cccc3c2cc(-c2nnc(CNC4CCNC4)s2)n3CC(F)(F)F)CC1 (stereo not drawn) [Compound 80B, N-(1-methylpiperidin-4-yl)-2-(5-{[(pyrrolidin-3-yl)amino]methyl}-1,3,4-thiadiazol-2-yl)-1-(2,2,2-trifluoroethyl)-1H-indol-4-amine]
8 | ** (** = 0.1 μM ≤ SC150 < 0.5 μM) | CN1CCC(Nc2cccc3c2cc(-c2nnc(CNc4cn[nH]c4)s2)n3CC(F)(F)F)CC1 [Compound 82B, N-(1-methylpiperidin-4-yl)-2-(5-{[(1H-pyrazol-4-yl)amino]methyl}-1,3,4-thiadiazol-2-yl)-1-(2,2,2-trifluoroethyl)-1H-indol-4-amine]
9 | ** (** = 0.1 μM ≤ SC150 < 0.5 μM) | CN1CCC(Nc2cccc3c2cc(-c2ncc(CNC(=O)c4ccccc4)s2)n3CC(F)(F)F)CC1 [Compound 92B, N-[(2-{4-[(1-methylpiperidin-4-yl)amino]-1-(2,2,2-trifluoroethyl)-1H-indol-2-yl}-1,3-thiazol-5-yl)methyl]benzamide]
10 | * (* = 0 μM ≤ SC150 < 0.1 μM) | CN1CCC(Nc2cccc3c2cc(-c2ncc(CNC(=O)C4CC4)s2)n3CC(F)(F)F)CC1 [Compound 94B, N-[(2-{4-[(1-methylpiperidin-4-yl)amino]-1-(2,2,2-trifluoroethyl)-1H-indol-2-yl}-1,3-thiazol-5-yl)methyl]cyclopropanecarboxamide]
11 | * (* = 0 μM ≤ SC150 < 0.1 μM) | COc1cc(S(C)(=O)=O)ccc1NCc1cnc(-c2cc3c(N[C@@H]4CCN(C)C[C@@H]4F)cccc3n2CC(F)(F)F)s1 [Compound 99B, N-[(3S,4R)-3-fluoro-1-methylpiperidin-4-yl]-2-(5-{[(4-methanesulfonyl-2-methoxyphenyl)amino]methyl}-1,3-thiazol-2-yl)-1-(2,2,2-trifluoroethyl)-1H-indol-4-amine]
12 | ** (** = 0.1 μM ≤ SC150 < 0.5 μM) | CN1CCC(Nc2cccc3c2cc(-c2ccc(CNc4ccc(S(C)(=O)=O)cc4)s2)n3CC(F)(F)F)CC1 [Compound 100B, 2-(5-{[(4-methanesulfonylphenyl)amino]methyl}thiophen-2-yl)-N-(1-methylpiperidin-4-yl)-1-(2,2,2-trifluoroethyl)-1H-indol-4-amine]
13 | ** (** = 0.1 μM ≤ SC150 < 0.5 μM) | CN1CCC(Nc2cccc3c2cc(-c2nnc(CNc4ccccc4)o2)n3CC(F)(F)F)CC1 [Compound 108B, N-(1-methylpiperidin-4-yl)-2-{5-[(phenylamino)methyl]-1,3,4-oxadiazol-2-yl}-1-(2,2,2-trifluoroethyl)-1H-indol-4-amine]
14 | *** (*** = 0.5 μM ≤ SC150 < 1 μM) | CN1CCC(Nc2cccc3c2cc(-c2nnc(CNC(=O)C4CC4)o2)n3CC(F)(F)F)CC1 [Compound 110B, N-[(5-{4-[(1-methylpiperidin-4-yl)amino]-1-(2,2,2-trifluoroethyl)-1H-indol-2-yl}-1,3,4-oxadiazol-2-yl)methyl]cyclopropanecarboxamide]
15 | ** (** = 0.1 μM ≤ SC150 < 0.5 μM) | CN1CCC(Nc2cccc3c2cc(-c2nnc(CNc4ccc(S(C)(=O)=O)cc4)o2)n3CC(F)(F)F)CC1 [Compound 111B, 2-(5-{[(4-methanesulfonylphenyl)amino]methyl}-1,3,4-oxadiazol-2-yl)-N-(1-methylpiperidin-4-yl)-1-(2,2,2-trifluoroethyl)-1H-indol-4-amine]
16 | *** (*** = 0.5 μM ≤ SC150 < 1 μM) | CN1CCC(Nc2cccc3c2cc(-c2nnc(CNc4cn[nH]c4)o2)n3CC(F)(F)F)CC1 [Compound 112B, N-(1-methylpiperidin-4-yl)-2-(5-{[(1H-pyrazol-4-yl)amino]methyl}-1,3,4-oxadiazol-2-yl)-1-(2,2,2-trifluoroethyl)-1H-indol-4-amine]
17 | * (* = 0 μM ≤ SC150 < 0.1 μM) | CN1CCC(Nc2cccc3c2cc(-c2nc(CNc4ccc(S(C)(=O)=O)cc4)no2)n3CC(F)(F)F)CC1 [Compound 136B, N-(1-methylpiperidin-4-yl)-2-(3-(((4-(methylsulfonyl)phenyl)amino)methyl)-1,2,4-oxadiazol-5-yl)-1-(2,2,2-trifluoroethyl)-1H-indol-4-amine]
18 | ** (** = 0.1 μM ≤ SC150 < 0.5 μM) | CN1CCC(Nc2cccc3c2cc(-c2nc(CNC(=O)C4CC4)no2)n3CC(F)(F)F)CC1 [Compound 137B, N-[(5-{4-[(1-methylpiperidin-4-yl)amino]-1-(2,2,2-trifluoroethyl)-1H-indol-2-yl}-1,2,4-oxadiazol-3-yl)methyl]cyclopropanecarboxamide]
19 | ** (** = 0.1 μM ≤ SC150 < 0.5 μM) | CN1CCC(Nc2cccc3c2cc(-c2nc(CNC(=O)c4ccccc4)no2)n3CC(F)(F)F)CC1 [Compound 138B, N-[(5-{4-[(1-methylpiperidin-4-yl)amino]-1-(2,2,2-trifluoroethyl)-1H-indol-2-yl}-1,2,4-oxadiazol-3-yl)methyl]benzamide]
20 | ** (** = 0.1 μM ≤ SC150 < 0.5 μM) | CN1CCC(Nc2cccc3c2cc(-c2nc(CNC(=O)c4cccs4)no2)n3CC(F)(F)F)CC1 [Compound 139B, N-[(5-{4-[(1-methylpiperidin-4-yl)amino]-1-(2,2,2-trifluoroethyl)-1H-indol-2-yl}-1,2,4-oxadiazol-3-yl)methyl]thiophene-2-carboxamide]
21 | ** (** = 0.1 μM ≤ SC150 < 0.5 μM) | CN1CCC(Nc2cccc3c2cc(-c2nc(CNC(=O)c4cnn(C)c4)no2)n3CC(F)(F)F)CC1 [Compound 140B, 1-methyl-N-[(5-{4-[(1-methylpiperidin-4-yl)amino]-1-(2,2,2-trifluoroethyl)-1H-indol-2-yl}-1,2,4-oxadiazol-3-yl)methyl]-1H-pyrazole-4-carboxamide]
22 | ** (** = 0.1 μM ≤ SC150 < 0.5 μM) | CN1CCC(Nc2cccc3c2cc(-c2nc(CNC(=O)c4ccn(C)n4)no2)n3CC(F)(F)F)CC1 [Compound 141B, 1-methyl-N-[(5-{4-[(1-methylpiperidin-4-yl)amino]-1-(2,2,2-trifluoroethyl)-1H-indol-2-yl}-1,2,4-oxadiazol-3-yl)methyl]-1H-pyrazole-3-carboxamide]
23 | * (* = 0 μM ≤ SC150 < 0.1 μM) | CN1CCC(Nc2cccc3c2cc(-c2noc(CNc4ccccc4)n2)n3CC(F)(F)F)CC1 [Compound 142B, N-(1-methylpiperidin-4-yl)-2-{5-[(phenylamino)methyl]-1,2,4-oxadiazol-3-yl}-1-(2,2,2-trifluoroethyl)-1H-indol-4-amine]
24 | * (* = 0 μM ≤ SC150 < 0.1 μM) | CN1CCC(Nc2cccc3c2cc(-c2noc(CNC(=O)c4cccs4)n2)n3CC(F)(F)F)CC1 [Compound 143B, N-[(3-{4-[(1-methylpiperidin-4-yl)amino]-1-(2,2,2-trifluoroethyl)-1H-indol-2-yl}-1,2,4-oxadiazol-5-yl)methyl]thiophene-2-carboxamide]
25 | * (* = 0 μM ≤ SC150 < 0.1 μM) | CN1CCC(Nc2cccc3c2cc(-c2noc(CNC(=O)c4ccccc4)n2)n3CC(F)(F)F)CC1 [Compound 144B, N-[(3-{4-[(1-methylpiperidin-4-yl)amino]-1-(2,2,2-trifluoroethyl)-1H-indol-2-yl}-1,2,4-oxadiazol-5-yl)methyl]benzamide]
26 | * (* = 0 μM ≤ SC150 < 0.1 μM) | CN1CCC(Nc2cccc3c2cc(-c2noc(CNC(=O)c4ccc(Cl)cc4)n2)n3CC(F)(F)F)CC1 [Compound 148B, 4-chloro-N-[(3-{4-[(1-methylpiperidin-4-yl)amino]-1-(2,2,2-trifluoroethyl)-1H-indol-2-yl}-1,2,4-oxadiazol-5-yl)methyl]benzamide]
27 | * (* = 0 μM ≤ SC150 < 0.1 μM) | CN1CCC(Nc2cccc3c2cc(-c2noc(CNC(=O)c4nccs4)n2)n3CC(F)(F)F)CC1 [Compound 149B, N-[(3-{4-[(1-methylpiperidin-4-yl)amino]-1-(2,2,2-trifluoroethyl)-1H-indol-2-yl}-1,2,4-oxadiazol-5-yl)methyl]-1,3-thiazole-2-carboxamide]
